Assay results taken from US7485634B2, “Azepinoindole and pyridoindole derivatives as pharmaceutical agents” (Exelixis, Inc., priority 2002, dated 2009).

Columns and labels:
[1] = target: T1, full length human farnesoid X receptor (Homo sapiens, UniProt Q96RI1); test: farnesoid X receptor/ECREx7 co-transfection assay (luciferase reporter, CV-1 cells); assay type: cell-based; conditions: read-out: agonist activity EC50
T1 construct: CMX-farnesoid X receptor (full length human farnesoid X receptor); expressed in transfected cells; host or cells: CV-1 African Green Monkey Kidney cells
T1 sequence (Q96RI1 1-472 isoform Q96RI1-2): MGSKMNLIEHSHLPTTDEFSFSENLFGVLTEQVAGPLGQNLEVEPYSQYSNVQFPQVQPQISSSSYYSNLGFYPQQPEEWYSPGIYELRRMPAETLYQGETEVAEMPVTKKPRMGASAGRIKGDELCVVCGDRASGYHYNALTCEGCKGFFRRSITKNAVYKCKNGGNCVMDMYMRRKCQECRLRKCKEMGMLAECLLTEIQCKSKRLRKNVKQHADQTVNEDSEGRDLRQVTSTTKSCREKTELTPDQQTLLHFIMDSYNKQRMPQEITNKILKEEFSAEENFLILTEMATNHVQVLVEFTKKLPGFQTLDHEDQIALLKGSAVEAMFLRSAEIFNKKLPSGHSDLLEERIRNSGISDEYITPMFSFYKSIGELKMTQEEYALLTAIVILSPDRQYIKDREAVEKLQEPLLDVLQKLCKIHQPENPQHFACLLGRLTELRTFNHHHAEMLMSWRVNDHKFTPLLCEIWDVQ
T1 sequence (P19793 1-462 partner): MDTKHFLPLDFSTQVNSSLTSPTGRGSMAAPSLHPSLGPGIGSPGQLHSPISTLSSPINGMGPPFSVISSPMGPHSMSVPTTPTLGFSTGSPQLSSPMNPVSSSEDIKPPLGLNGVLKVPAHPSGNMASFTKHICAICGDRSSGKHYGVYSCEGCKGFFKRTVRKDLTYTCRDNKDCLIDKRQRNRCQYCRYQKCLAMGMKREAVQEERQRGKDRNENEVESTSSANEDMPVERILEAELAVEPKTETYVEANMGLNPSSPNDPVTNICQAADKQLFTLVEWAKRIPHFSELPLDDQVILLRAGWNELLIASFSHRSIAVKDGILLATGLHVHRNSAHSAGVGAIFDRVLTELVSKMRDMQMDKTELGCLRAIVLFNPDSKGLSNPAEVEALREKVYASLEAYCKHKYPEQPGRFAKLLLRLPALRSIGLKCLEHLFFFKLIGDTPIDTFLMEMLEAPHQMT
Protocol: The basic co-transfection protocol for measuring the farnesoid X receptor activity is as follows. CV-1 African Green Monkey Kidney cells were plated 24 hours before transfection to achieve approximately 70-80 percent confluency. Cells were transfected with the following expression vectors, CMX-farnesoid X receptor (full length human farnesoid X receptor), CMX-RXRα (full length human RXR), Luc12 (ECREx7-Tk-Luciferase) luciferase reporter gene construct. (See WO 00/76523, Venkateswaran et al., (2000) J. Biol. Chem. 275 14700-14707). A CMX-β-Galactosidase expression vector was used as a transfection control. The transfection reagent used was DOTAP (Boehringer Mannheim). Cells were incubated with the DOTAP/DNA mixture for 5 hours after which the cells were harvested and plated onto either 96 well or 384 well plates containing the appropriate concentration of test compound. The assay was allowed to continue for an additional 18-20 hours, after which the cells were lysed, with lysis buffer (1% triton X 100, 10% glycerol, 5 mM Dithiothreitol, 1 mM EGTA, 25 mM Tricine, pH 7.8) and the luciferase activity measured in the presence of Luciferase assay buffer (0.73 mM ATP, 22.3 mM Tricine, 0.11 mM EGTA, 0.55 mM Luciferin, 0.15 mM Coenzyme A, 0.5 mM HEPES, 10 mM Magnesium sulphate) on a standard luminomter plate reader (PE Biosystems, NorthStar Reader), using recommended operating instructions and conditions.
Both the farnesoid X receptor/ECREx7 co-transfection assay (Example 76) and the TR-FRET assay (Example 75) can be used to establish the EC50/IC50 values for potency and percent activity or inhibition for efficacy. Efficacy defines the activity of a compound relative to a high control (chenodeoxycholic acid, CDCA) or a low control (DMSO/vehicle). The dose response curves are generated from an 8 point curve with concentrations differing by ½ LOG units. Each point represents the average of 4 wells of data from a 384 well plate. The curve for the data is generated by using the equation: Y=Bottom+(Top−Bottom)/(1+10^((LogEC50−X)*HillSlope))
The EC50/IC50 is therefore defined as the concentration at which an agonist or antagonist elicits a response that is half way between the Top (maximum) and Bottom (baseline) values. The EC50/IC50 values represented are the averages of at least 3 independent experiments. The determination of the relative efficacy or % control for an agonist is by comparison to the maximum response achieved by chenodeoxycholic acid that is measured individually in each dose response experiment.
For the antagonist assay, CDCA is added to each well of a 384 well plate to elicit a response. The % inhibition for each antagonist is therefore a measurement of the inhibition of the activity of CDCA.

normal mice = test: In vivo plasma lipid profile, normal mice, one week of daily oral dosing; set-up: species or system mouse
Protocol: To compare the effects of compounds on plasma lipid profiles, including but not limited to cholesterol and triglycerides, animals were dosed with compound for one week and plasma lipid levels monitored throughout the study. Male C57BL/6 mice (n=8) were dosed daily by oral gavage with vehicle or compound. Plasma samples were taken on day −1 (in order to group animals), day 1, 3, and 7. Samples were collected three hours after the daily dose. On day 7 of the study, following plasma collection, animals were euthanized and tissues, such as liver and intestinal mucosa were collected and snap frozen for further analysis. Plasma was analyzed for lipid parameters, such as total cholesterol, HDL cholesterol and triglyceride levels. RNA was extracted from frozen tissues for later analysis by quantitative real time PCR for regulation of key target genes. To identify specificity of target gene regulation by the farnesoid X receptor, knockout mice and C57BL/6 wild-type controls maybe used in this same protocol.

farnesoid X receptor = target: T2, farnesoid X receptor (Homo sapiens, UniProt Q96RI1); test: one or more of the in vitro assays described herein (TR-FRET assay, Example 75; co-transfection assay, Example 76); conditions: relative to maximum response of chenodeoxycholic acid (CDCA); read-out: efficacy;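 further: TR-FRET assay or luciferase reporter in CV-1 monkey kidney cells co-transfected with human FXR and RXRα, dose-response over 8 half-log concentrations, CDCA added in antagonist mode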
T2 construct: fused on or other part: GST fused in frame to the N-terminus of the LBD (TR-FRET assay only); Nothing is fused on in the co-transfection assay
T2 sequence (Q96RI1 244-471 isoform Q96RI1-2 limits assumed): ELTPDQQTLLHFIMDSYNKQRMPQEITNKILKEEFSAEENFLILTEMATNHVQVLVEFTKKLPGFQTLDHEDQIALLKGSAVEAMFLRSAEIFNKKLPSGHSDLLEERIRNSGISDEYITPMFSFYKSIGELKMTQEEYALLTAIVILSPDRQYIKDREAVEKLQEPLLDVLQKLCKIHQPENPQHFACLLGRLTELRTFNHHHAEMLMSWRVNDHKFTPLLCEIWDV
Protocol: (Wallac/PE Life Sciences, Cat# AD0059A) in FRET assay buffer (20 mM KH2PO4/K2HPO4 (pH 7.3), 150 mM NaCl, 2 mM CHAPS, 2 mM EDTA, 1 mM DTT) in the presence of the test compound(s) for 2-4 hours at room temperature in a 384 well assay plate. Data was collected using an LJL Analyst using the standard operating instructions and conditions with readings at emission wavelengths of 615 nm and 665 nm after a delay of 65 ps and an excitation wavelength of 330 nm.
The basic co-transfection protocol for measuring the farnesoid X receptor activity is as follows. CV-1 African Green Monkey Kidney cells were plated 24 hours before transfection to achieve approximately 70-80 percent confluency. Cells were transfected with the following expression vectors, CMX-farnesoid X receptor (full length human farnesoid X receptor), CMX-RXRα (full length human RXR), Luc12 (ECREx7-Tk-Luciferase) luciferase reporter gene construct. […] A CMX-β-Galactosidase expression vector was used as a transfection control. The transfection reagent used was DOTAP (Boehringer Mannheim). Cells were incubated with the DOTAP/DNA mixture for 5 hours after which the cells were harvested and plated onto either 96 well or 384 well plates containing the appropriate concentration of test compound. The assay was allowed to continue for an additional 18-20 hours, after which the cells were lysed, with lysis buffer (1% triton X 100, 10% glycerol, 5 mM Dithiothreitol, 1 mM EGTA, 25 mM Tricine, pH 7.8) and the luciferase activity measured in the presence of Luciferase assay buffer (0.73 mM ATP, 22.3 mM Tricine, 0.11 mM EGTA, 0.55 mM Luciferin, 0.15 mM Coenzyme A, 0.5 mM HEPES, 10 mM Magnesium sulphate) on a standard luminomter plate reader (PE Biosystems, NorthStar Reader), using recommended operating instructions and conditions.

db/db mouse = test: In vivo model of diabetes and dyslipidemia: db/db mouse; conditions: once daily 10 mg/kg for one week
[2] = test system: low density lipoprotein receptor deficient mice (LDLR^−/−); test: In vivo model of hyperlipidemia and atherosclerosis: LDLR−/− mice consuming a western diet; set-up: species or system mouse
[3] = 10 mg/kg daily dosing for one week
[4] = one week of daily dosing at 10 mg/kg

O=C(NC1CCC1)C1=CN(C(=O)c2ccc(F)cc2)CCc2c1[nH]c1ccccc21 [3-(4-fluorobenzoyl)-1,2,3,6-tetrahydroazepino[4,5-b]indole-5-carboxylic acid cyclobutylamide]
EC50 [1]: < 1000 nM

CCOC(=O)C1=CN(C(=O)c2ccc(F)c(F)c2)CC(C)(C)c2c1[nH]c1ccccc21 [ethyl 3-(3,4-difluorobenzoyl)-1,1-dimethyl-1,2,3,6-tetrahydroazepino[4,5-b]indole-5-carboxylate]
plasma HDL-cholesterol levels (normal mice; [3]): without affecting | plasma non-HDL cholesterol (normal mice; [3]): significant lowering | plasma total cholesterol (normal mice; [3]): decreased | plasma triglyceride levels (normal mice; once daily dosing at 0.1-10 mg/kg for one week): significantly reduced | Emax (farnesoid X receptor): > 100% | plasma free fatty acid levels (db/db mouse): declines | reduction in non-HDL cholesterol (db/db mouse): approximately 50% | reduction in plasma triglycerides (db/db mouse): approximately 50% | decrease of plasma total cholesterol levels [2, 4]: ~50% | non-HDL cholesterol [2, 4]: decrease | reduction of plasma triglycerides [2, 4]: greater than 50% | plasma free fatty acid concentration ([2]; treatment with compound): attenuated | plasma glucose concentration ([2]; treatment with compound): attenuated

CCCOC(=O)C1=CN(C(=O)c2ccc(F)cc2)C(C)Cc2c1[nH]c1ccccc21 (stereo not shown) [n-propyl 3(4-fluorobenzoyl)-2-methyl-1,2,3,6-tetrahydroazepino[4,5-b]indole-5-carboxylate]
EC50 [1]: < 1000 nM

CCCOC(=O)C1=CN(C(=O)c2ccc(F)cc2)C(C)Cc2c1[nH]c1cc(F)ccc21 (stereo not shown) [n-propyl 3(4-fluorobenzoyl)-2-methyl-8-fluoro-1,2,3,6-tetrahydroazepino[4,5-b]indole-5-carboxylate]
EC50 [1]: < 1000 nM
